ChEMBL document CHEMBL1201862, “PubChem BioAssay data set” (2004)
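Tested at 5 concentrations; 48 h exposure; 96-well plates; endpoints linearly interpolated, else capped at highest concentration. GI50 marks 50% less growth.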 Activity calls are given as the source filed them. Cut-off read from the data, not from the text of the source: active = GI50 up to about 1.1 µM and inactive = higher.

Assays:
Test in all cases: NCI-60 cell line screen, 48 h
OVCAR-8 = tested on: OVCAR-8
UACC-257 = tested on: UACC-257
OVCAR-3 = tested on: OVCAR-3
NCI-H460 = tested on: NCI-H460
ACHN = tested on: ACHN
HCT-116 = tested on: HCT-116
A549 = tested on: A549
HCC 2998 = tested on: HCC 2998
OVCAR-4 = tested on: OVCAR-4
SK-OV-3 = tested on: SK-OV-3
SK-MEL-5 = tested on: SK-MEL-5
M14 = tested on: M14
NCI-H522 = tested on: NCI-H522
HCT-15 = tested on: HCT-15
SN12C = tested on: SN12C
UO-31 = tested on: UO-31
SF-268 = tested on: SF-268
Malme-3M = tested on: Malme-3M
SK-MEL-2 = tested on: SK-MEL-2

Compound: C/C(=N\NS(=O)(=O)c1ccccc1)c1ccc[n+]([O-])n1
- GI50 (OVCAR-8): 81.7 µM (inactive)
- GI50 (UACC-257): 58.7 µM (inactive)
- GI50 (OVCAR-3): 42.5 µM (inactive)
- GI50 (NCI-H460): > 100 µM (inactive)
- GI50 (ACHN): > 100 µM (inactive)
- GI50 (HCT-116): 88.1 µM (inactive)
- GI50 (A549): > 100 µM (inactive)
- GI50 (HCC 2998): > 100 µM (inactive)
- GI50 (OVCAR-4): 49.3 µM (inactive)
- GI50 (SK-OV-3): > 100 µM (inactive)
- GI50 (SK-MEL-5): > 100 µM (inactive)
- GI50 (M14): 30.1 µM (inactive)
- GI50 (NCI-H522): 25.6 µM (inactive)
- GI50 (HCT-15): > 100 µM
- GI50 (SN12C): > 100 µM (inactive)
- GI50 (UO-31): > 100 µM (inactive)
- GI50 (SF-268): > 100 µM (inactive)

Compound: CCCCCCCCCCCCCCCC(=O)NC1CCc2cc(O)c(O)c(O)c2-c2ccc(SC)c(=O)cc21 (configuration not stated)
- GI50 (OVCAR-8): 7.67 µM (inactive)
- GI50 (UACC-257): 11.1 µM (inactive)
- GI50 (OVCAR-3): 5.28 µM (inactive)
- GI50 (NCI-H460): 5.77 µM (inactive)
- GI50 (ACHN): 8.04 µM (inactive)
- GI50 (HCT-116): 3.86 µM (inactive)
- GI50 (A549): 1.49 µM (inactive)
- GI50 (Malme-3M): 10.4 µM (inactive)
- GI50 (HCC 2998): 4.01 µM (inactive)
- GI50 (OVCAR-4): 10.3 µM (inactive)
- GI50 (SK-OV-3): 14.4 µM (inactive)
- GI50 (SK-MEL-5): 4.42 µM (inactive)
- GI50 (M14): 8.02 µM (inactive)
- GI50 (NCI-H522): 2.37 µM (inactive)
- GI50 (HCT-15): 6.03 µM
- GI50 (SN12C): 12.9 µM (inactive)
- GI50 (UO-31): 8.22 µM (inactive)
- GI50 (SF-268): 5.28 µM (inactive)

Compound: CCOC(=O)C1C(c2ccc(Br)cc2)N(Cc2ccccc2)C(c2ccc(Br)cc2)C(C(=O)OC)S1(=O)=O (configuration not stated)
- GI50 (OVCAR-8): 24.8 µM (inactive)
- GI50 (UACC-257): 24.9 µM (inactive)
- GI50 (OVCAR-3): > 100 µM (inactive)
- GI50 (NCI-H460): > 100 µM (inactive)
- GI50 (ACHN): 93.5 µM (inactive)
- GI50 (HCT-116): 25.2 µM (inactive)
- GI50 (A549): 76.9 µM (inactive)
- GI50 (Malme-3M): > 100 µM (inactive)
- GI50 (HCC 2998): > 100 µM (inactive)
- GI50 (OVCAR-4): 29.1 µM (inactive)
- GI50 (SK-OV-3): > 100 µM (inactive)
- GI50 (M14): 83.4 µM (inactive)
- GI50 (NCI-H522): 50.6 µM (inactive)
- GI50 (HCT-15): > 100 µM
- GI50 (SN12C): > 100 µM (inactive)
- GI50 (UO-31): 49.7 µM (inactive)
- GI50 (SK-MEL-2): > 100 µM (inactive)
- GI50 (SF-268): 39.6 µM (inactive)

Compound: Clc1c(Cl)c2c(Cl)c(Cl)c1C[PH](c1ccccc1)(c1ccccc1)CC[PH](c1ccccc1)(c1ccccc1)Cc1c(Cl)c(Cl)c(c(Cl)c1Cl)C[PH](c1ccccc1)(c1ccccc1)CC[PH](c1ccccc1)(c1ccccc1)C2
- GI50 (OVCAR-8): 3.29 µM (inactive)
- GI50 (UACC-257): 2.38 µM (inactive)
- GI50 (OVCAR-3): 2.66 µM (inactive)
- GI50 (NCI-H460): 2.77 µM (inactive)
- GI50 (ACHN): 4.69 µM (inactive)
- GI50 (HCT-116): 1.79 µM (inactive)
- GI50 (A549): 3.72 µM (inactive)
- GI50 (Malme-3M): 2.38 µM (inactive)
- GI50 (HCC 2998): 3.63 µM (inactive)
- GI50 (OVCAR-4): 1.11 µM (active)
- GI50 (SK-OV-3): 6.84 µM (inactive)
- GI50 (SK-MEL-5): 1.67 µM (inactive)
- GI50 (M14): 4.51 µM (inactive)
- GI50 (NCI-H522): 2.56 µM (inactive)
- GI50 (HCT-15): 8.39 µM
- GI50 (SN12C): 3.28 µM (inactive)
- GI50 (UO-31): 6.49 µM (inactive)
- GI50 (SK-MEL-2): 2.16 µM (inactive)
- GI50 (SF-268): 3.39 µM (inactive)
